Counter-ions that a name gives are not always drawn.
Biological target: T1, proton pump (H+/K+-ATPase) (Sus scrofa, UniProt P19156)
T1 construct: Gastric vesicles were prepared from hog stomach via centrifugal separation; from tissue; host or cells: hog stomach (gastric vesicles, method of Rabon et al. 1988)
Experiment: Measurement of inhibitory effects on proton pump (H+/K+-ATPase) activities
Type: biochemical
Details: hog gastric vesicles, K+-specific H+/K+-ATPase activity, Tris-HCl buffer pH 7.4, 37° C. for 40 minutes, malachite green Pi readout
Procedure, shortened: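 Hog gastric vesicles in 60 mmol/l Tris-HCl pH 7.4 with 0.5% DMSO were treated with compounds at room temperature; reaction was started with 10 μl of 10 mmol/l ATP stock. Released Pi was read at 570 nm, K+-specific activity taken as the ±K+ difference. IC50 from 4-parameter logistic fit.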

T1 sequence (P19156 whole entry): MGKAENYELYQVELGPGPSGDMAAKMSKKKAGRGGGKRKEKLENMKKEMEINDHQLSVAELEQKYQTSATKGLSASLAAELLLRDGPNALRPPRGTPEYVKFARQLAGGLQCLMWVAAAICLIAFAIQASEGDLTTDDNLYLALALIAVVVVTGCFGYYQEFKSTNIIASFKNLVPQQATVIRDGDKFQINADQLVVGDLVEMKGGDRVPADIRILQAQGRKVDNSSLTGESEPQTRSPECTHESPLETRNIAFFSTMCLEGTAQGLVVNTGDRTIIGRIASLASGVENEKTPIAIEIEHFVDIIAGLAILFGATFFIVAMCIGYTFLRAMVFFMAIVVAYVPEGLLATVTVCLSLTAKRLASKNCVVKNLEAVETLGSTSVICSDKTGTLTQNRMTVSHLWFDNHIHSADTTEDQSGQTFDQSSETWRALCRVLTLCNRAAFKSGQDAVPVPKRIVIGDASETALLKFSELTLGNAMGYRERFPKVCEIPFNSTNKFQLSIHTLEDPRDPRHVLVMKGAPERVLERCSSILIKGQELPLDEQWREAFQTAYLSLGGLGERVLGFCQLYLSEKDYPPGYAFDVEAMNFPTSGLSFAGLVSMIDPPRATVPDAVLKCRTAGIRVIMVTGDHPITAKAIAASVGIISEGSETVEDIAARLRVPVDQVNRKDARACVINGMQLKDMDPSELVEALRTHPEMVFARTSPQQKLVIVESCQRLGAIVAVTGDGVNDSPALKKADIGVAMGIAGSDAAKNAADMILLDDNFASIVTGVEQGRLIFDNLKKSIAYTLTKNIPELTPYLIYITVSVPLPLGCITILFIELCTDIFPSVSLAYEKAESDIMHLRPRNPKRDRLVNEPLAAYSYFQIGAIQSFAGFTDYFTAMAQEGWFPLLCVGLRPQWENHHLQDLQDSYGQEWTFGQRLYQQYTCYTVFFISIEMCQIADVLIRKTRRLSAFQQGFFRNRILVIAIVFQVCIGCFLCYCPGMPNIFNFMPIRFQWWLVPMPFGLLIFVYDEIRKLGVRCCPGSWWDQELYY
T1 sequence (P18434 whole entry partner): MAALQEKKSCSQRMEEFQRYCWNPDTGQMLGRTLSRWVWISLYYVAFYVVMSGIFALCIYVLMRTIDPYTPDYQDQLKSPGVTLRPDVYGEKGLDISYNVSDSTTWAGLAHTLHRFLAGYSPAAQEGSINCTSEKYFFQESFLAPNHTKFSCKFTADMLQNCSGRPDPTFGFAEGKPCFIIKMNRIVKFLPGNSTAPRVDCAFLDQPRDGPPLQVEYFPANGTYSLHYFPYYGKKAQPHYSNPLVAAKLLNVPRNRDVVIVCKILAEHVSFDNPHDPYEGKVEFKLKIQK

| SMILES | IC50 [nM] |
| --- | --- |
| CNCc1cn(S(=O)(=O)c2cccnc2)c2cc(Nc3ccc(F)nc3C)ccc12 [Example 116, N-(6-fluoro-2-methylpyridin-3-yl)-3-((methylamino)methyl)-1-(pyridin-3-ylsulfonyl)-1H-indol-6-amine hydrochloride] | 1570 |
| CNCc1cn(S(=O)(=O)c2cccc(OC(F)F)c2)c2cc(Nc3ccc(OC(F)(F)F)cc3C)ccc12 [Example 179, 1-((3-(difluoromethoxy)phenyl)sulfonyl)-N-(2-methyl-4-(trifluoromethoxy)phenyl)-3-((methylamino)methyl)-1H-indol-6-amine hydrochloride] | 330 |
| CNCc1cn(S(=O)(=O)c2cccc(Br)c2)c2cc(Nc3ccc(C)cc3F)ccc12 [Example 228, 1-((3-bromophenyl)sulfonyl)-N-(2-fluoro-4-methylphenyl)-3-((methylamino)methyl)-1H-indol-6-amine hydrochloride] | 900 |
| CNCc1cn(S(=O)(=O)c2cncc(Br)c2)c2cc(Nc3ccc(C)cc3F)ccc12 [Example 241, 1-((5-bromopyridin-3-yl)sulfonyl)-N-(2-fluoro-4-methylphenyl)-3-((methylamino)methyl)-1H-indol-6-amine hydrochloride] | 2190 |
| CNCc1cn(S(=O)(=O)c2cccnc2)c2cc(Nc3c(F)cccc3F)ccc12 [Example 60, N-(2,6-difluorophenyl)-3-((methylamino)methyl)-1-(pyridin-3-ylsulfonyl)-1H-indol-6-amine hydrochloride] | 2460 |
| CNCc1cn(S(=O)(=O)c2cccc(OC)c2)c2cc(Nc3ccc(C(F)(F)F)cc3Cl)ccc12 [Example 166, N-(2-chloro-4-(trifluoromethyl)phenyl)-1-((3-methoxyphenyl)sulfonyl)-3-((methylamino)methyl)-1H-indol-6-amine hydrochloride] | 340 |
| CNCc1cn(S(=O)(=O)c2cccnc2)c2cc(Nc3cc(F)c(C(F)(F)F)cc3F)ccc12 [Example 78, N-(2,5-difluoro-4-(trifluoromethyl)phenyl)-3-((methylamino)methyl)-1-(pyridin-3-ylsulfonyl)-1H-indol-6-amine hydrochloride] | 2260 |
| CNCc1cn(S(=O)(=O)c2cccnc2)c2cc(Nc3ccc(F)cc3C(F)(F)F)ccc12 [Example 26, N-(4-fluoro-2-(trifluoromethyl)phenyl)-3-((methylamino)methyl)-1-(pyridin-3-ylsulfonyl)-1H-indol-6-amine hydrochloride] | 180 |

Continued, values first:

| IC50 [nM] | SMILES |
| --- | --- |
| 770 | CNCc1cn(S(=O)(=O)c2cccnc2)c2cc(Cc3ccccc3F)ccc12 [Example 269, 1-(6-(2-fluorobenzyl)-1-(pyridin-3-ylsulfonyl)-1H-indol-3-yl)-N-methylmethanamine hydrochloride] |
| 1010 | CNCc1cn(S(=O)(=O)c2cccnc2)c2cc(Cc3ccc(C)nc3Cl)ccc12 [Example 284, 1-(6-((2-chloro-6-methylpyridin-3-yl)methyl)-1-(pyridin-3-ylsulfonyl)-1H-indol-3-yl)-N-methylmethanamine hydrochloride] |
| 2190 | CNCc1cn(S(=O)(=O)c2cccnc2)c2cc(Cc3ccc(OC(F)(F)F)cc3F)ccc12 [Example 279, 1-(6-(2-fluoro-4-(trifluoromethoxy)benzyl)-1-(pyridin-3-ylsulfonyl)-1H-indol-3-yl)-N-methylmethanamine hydrochloride] |
| 970 | CNCc1cn(S(=O)(=O)c2cccc(F)c2)c2cc(Nc3ccc(Cl)nc3C)cnc12 [Example 344, N-(6-chloro-2-methylpyridin-3-yl)-1-((3-fluorophenyl)sulfonyl)-3-((methylamino)methyl)-1H-pyrrolo[3,2-b]pyridin-6-amine hydrochloride] |
| 18300 | CNCc1cn(S(=O)(=O)c2cccc(F)c2)c2cc(Nc3ccc(C)cc3Cl)ncc12 [Example 359, N-(2-chloro-4-methylphenyl)-1-((3-fluorophenyl)sulfonyl)-3-((methylamino)methyl)-1H-pyrrolo[3,2-c]pyridin-6-amine hydrochloride] |

— patent US9676714B2, “Sulfonylindole derivatives and method for preparing the same” (Daewoong Pharmaceutical Co., Ltd., priority 2013, dated 2017)
